Numbering of substitutions follows the chain as printed. “And” between values parts separate entries of the source, which are not always exact repeats. Identical values can stand only once. “Also recorded” adds a separate entry of the source. Like-named read-outs stand apart in the source and are kept apart here.
Columns and labels:
PEPCK-C 139Leu [1] = biological target: T1, PEPCK-C 139Leu (Sus scrofa, UniProt A0A4X1UM84, M139L); assay: Compound 1 and 2 inhibition assays in PEP synthesis direction (Vmax and Km); format: biochemical, pig; settings: for Vmax (GTP) in presence of inhibitor / Vmax (OAA) in presence of inhibitor: 50 μM inhibitor; for Vmax (OAA) in presence of inhibitor: OAA variable substrate
T1 construct: made in house; host or cells: Escherichia coli BL21 (DE3)
T1 sequence (A0A4X1UM84 1-622 M139L): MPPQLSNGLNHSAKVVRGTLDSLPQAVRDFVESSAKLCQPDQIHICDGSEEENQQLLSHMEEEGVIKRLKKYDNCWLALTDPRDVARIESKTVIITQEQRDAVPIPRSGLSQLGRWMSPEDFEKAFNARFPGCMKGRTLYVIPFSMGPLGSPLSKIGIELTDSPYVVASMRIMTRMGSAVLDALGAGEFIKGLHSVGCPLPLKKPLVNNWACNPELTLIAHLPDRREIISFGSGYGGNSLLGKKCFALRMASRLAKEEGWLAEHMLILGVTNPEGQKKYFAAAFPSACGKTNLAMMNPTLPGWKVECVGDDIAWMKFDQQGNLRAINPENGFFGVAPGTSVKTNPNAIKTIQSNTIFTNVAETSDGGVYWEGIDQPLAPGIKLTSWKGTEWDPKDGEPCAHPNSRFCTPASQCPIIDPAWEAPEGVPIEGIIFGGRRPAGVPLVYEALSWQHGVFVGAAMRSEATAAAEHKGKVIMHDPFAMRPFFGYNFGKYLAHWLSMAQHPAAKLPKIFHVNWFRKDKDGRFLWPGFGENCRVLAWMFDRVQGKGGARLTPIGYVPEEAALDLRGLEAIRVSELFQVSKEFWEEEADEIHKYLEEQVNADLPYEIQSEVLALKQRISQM
Method: (§1) PEPCK-C activity was measured in an UNICAM 500 spectrometer (UNICAM Analytical Systems, UK) with coupled spectrophotometric assays using pyruvate kinase and lactate dehydrogenase as auxiliary enzymes in PEP synthesis reaction and malate dehydrogenase in the reverse reaction.
(§2) 3-MP inhibitions assays in OAA synthesis direction were carried out as described before with the exception of the variable substrate (50–600 μM for PEP and 10–100 μM for GDP) and 3-MP concentration (10–100 μM). Assays in the direction of PEP synthesis were performed in 1 mL of a 100 mM HEPES buffer pH 7.4, containing 10 mM DTT, 0.2 mM MnCl2, 2 mM MgCl2, 1 mM GTP or 400 μM OAA, 1 mM ADP, 0.2 mM NADH, PEPCK-C and 5 units of each pyruvate kinase and lactate dehydrogenase. Reactions were initiated by addition of OAA. Variable substrates were 5–50 μM OAA or 25–500 μM GTP and 3-MP concentrations were between 10–400 μM. Rates were calculated by measuring the decreasing slope at 340 nm of absorbance after subtracting the rate of spontaneous NADH oxidation in the case of OAA synthesis or the rate of the blank which contained all the components of the mix but PEPCK-C in the case of PEP synthesis.
Compound 1 and 2 inhibitions assays were performed in PEP synthesis direction as described in 3-MP inhibition assays. Variable substrates were 10–100 μM OAA or 25–500 μM GTP, inhibitors concentrations were around IC50 value (100 μM compound 1 or 50 μM compound 2) and 20 units of each pyruvate kinase and lactate dehydrogenase were also added.
Data from compound 1 and 2 inhibition assays were represented in double reciprocal plots to calculate Vmax and Km values using GraphPad Prism 3.03 software.

[2] = Solubility / precipitation in the enzymatic assay; format: physicochemical
Method: Assays to calculate IC50 values were performed in the direction of OAA synthesis in 1 mL of a 100 mM HEPES buffer pH 7.4, containing 10 mM DTT, 0.2 mM MnCl2, 2 mM MgCl2, 2 mM GDP, 0.2 mM NADH, 2 mM PEP, 100 mM KHCO3 and 4 units of malate dehydrogenase. Variable inhibitor concentrations of 0–200 μM were also used. Assays were initiated by PEPCK-C addition. Rates were calculated by measuring the decreasing slope of absorbance at 340 nm after subtracting the rate of spontaneous NADH oxidation.

PEPCK-C 139Leu [3] = biological target: T1, PEPCK-C 139Leu; assay: 3-MP inhibition kinetics (double reciprocal, secondary and Dixon plots); format: biochemical, pig
Method: as §1, §2
(§3) 3-MP inhibition assays were fitted in double reciprocal plots. To describe the mixed non-competitive inhibition, the double reciprocal equation can be written as: 1/v = Km/Vmax (1+[I]/Ki) 1/[S]+1/Vmax (1+[I]/αKi) (2)
(§4) Ki and αKi are the dissociation constants of the enzyme-inhibitor complex and the enzyme-inhibitor-substrate complex, respectively.
(§5) The equation for the Dixon plot is: 1/v = Km/Vmax[S]+1/Vmax+Km/Vmax[S]Ki (5)

PEPCK-C 139Met = biological target: T2, PEPCK-C 139Met (Sus scrofa, UniProt A0A4X1UM84); assay: as above; format: biochemical, pig; design: made in house; host or cells: Escherichia coli BL21 (DE3)
T2 sequence (A0A4X1UM84 1-622): T1 sequence (A0A4X1UM84 1-622 M139L) with L139M
Method: as §1, §2, §3, §4, §5

Cn1nc(-c2ccc(C=NNC(=O)c3ccc(Cl)cc3Cl)s2)cc1C(F)(F)F [compound 2, N'1-({5-[1-methyl-5-(trifluoromethyl)-1H-pyrazol-3-yl]-2-thienyl}methylidene)-2,4-dichlorobenzene-1-carbohydrazide]
Reduction of Km value for GTP in presence of the inhibitor (PEPCK-C 139Leu [1]; GTP variable substrate): about 30% | Vmax (GTP) in presence of inhibitor (PEPCK-C 139Leu [1]; GTP variable substrate): 6.1 ± 1.0 ns μmol min^-1 mg^-1 | Vmax (OAA) in presence of inhibitor (PEPCK-C 139Leu [1]): 12.7 µmol/min/mg and 12.7 ± 1.1 µmol/min/mg | Solubility (in words) [2]: poor solubility

CC(=NNC(=S)NC1CCCCC1)c1sc(-c2cccs2)nc1C [compound 1, N1-cyclohexyl-2-{1-[4-methyl-2-(2-thienyl)-1,3-thiazol-5-yl]ethylidene}hydrazine-1-carbothiamide]
Vmax (GTP) in presence of inhibitor (PEPCK-C 139Leu [1]; GTP variable substrate): 7.2 μmol min^-1 mg^-1 and 7.2 ± 0.4 ns μmol min^-1 mg^-1 | Vmax (OAA) in presence of inhibitor (PEPCK-C 139Leu [1]): 9.4 μmol min^-1 mg^-1 and 9.4 ± 1.3 ns μmol min^-1 mg^-1 | Solubility (in words) [2]: poor solubility

O=C(O)c1ncccc1S [3-MP, 3-mercaptopicolinic acid]
Pattern of inhibition (GDP) (PEPCK-C 139Leu [3]; 139Leu, GDP as variable substrate): uncompetitive inhibitor | Pattern of inhibition (GTP) (PEPCK-C 139Leu [3]; 139Leu, GTP as variable substrate): uncompetitive inhibitor | Pattern of inhibition (OAA) (PEPCK-C 139Leu [3]; 139Leu, OAA as variable substrate): mixed non-competitive inhibitor; also recorded: Mixed NC | αKi (OAA) (PEPCK-C 139Leu [3]; 139Leu, OAA as variable substrate, PEP synthesis direction): 21 ± 13 ns μM | Ki (PEPCK-C 139Leu [3]; 139Leu, OAA as variable substrate, PEP synthesis direction, read-out: Ki (OAA)): 29 ± 1 µM | Pattern of inhibition (PEP) (PEPCK-C 139Leu [3]; 139Leu, PEP as variable substrate): mixed non-competitive inhibitor; also recorded: Mixed NC | αKi (PEP) (PEPCK-C 139Leu [3]; 139Leu, PEP as variable substrate, OAA synthesis direction): 31 ± 5 μM and 31 ± 5 ns μM | Ki (PEPCK-C 139Leu [3]; 139Leu, PEP as variable substrate, OAA synthesis direction, read-out: Ki (PEP)): 19 ± 4 µM | Ki (PEPCK-C 139Leu [3]; 139Leu, with respect to GDP, Dixon plot, substrates saturating, read-out: Ki (GDP)): 45 ± 0.8 µM | Ki (PEPCK-C 139Leu [3]; 139Leu, with respect to GTP, Dixon plot, substrates saturating, read-out: Ki (GTP)): 873 ± 144 µM | Ki for 139Leu larger than for 139Met (OAA binding) (PEPCK-C 139Leu [3]; OAA as variable substrate): 50% | Pattern of inhibition (GDP) (PEPCK-C 139Met; 139Met, GDP as variable substrate): uncompetitive inhibitor | Pattern of inhibition (GTP) (PEPCK-C 139Met; 139Met, GTP as variable substrate): uncompetitive inhibitor | Pattern of inhibition (OAA) (PEPCK-C 139Met; 139Met, OAA as variable substrate): mixed non-competitive inhibitor; also recorded: Mixed NC | αKi (OAA) (PEPCK-C 139Met; 139Met, OAA as variable substrate, PEP synthesis direction): 49 ± 18 µM | Ki (PEPCK-C 139Met; 139Met, OAA as variable substrate, PEP synthesis direction, read-out: Ki (OAA)): 18 ± 4 µM | Pattern of inhibition (PEP) (PEPCK-C 139Met; 139Met, PEP as variable substrate): mixed non-competitive inhibitor; also recorded: Mixed NC | αKi (PEP) (PEPCK-C 139Met; 139Met, PEP as variable substrate, OAA synthesis direction): 20 ± 4 µM | Ki (PEPCK-C 139Met; 139Met, PEP as variable substrate, OAA synthesis direction, read-out: Ki (PEP)): 16 ± 2 µM | Ki (PEPCK-C 139Met; 139Met, with respect to GDP, Dixon plot, substrates saturating, read-out: Ki (GDP)): 45 ± 3 µM | Ki (PEPCK-C 139Met; 139Met, with respect to GTP, Dixon plot, substrates saturating, read-out: Ki (GTP)): 273 ± 68 µM | Ki fold lower for 139Met than 139Leu (GTP) (PEPCK-C 139Met; GTP as variable substrate): 3 fold | Ki fold lower for 139Met than 139Leu (OAA) (PEPCK-C 139Met; OAA as variable substrate): 1.6 fold

Source: PMC4938538, “Inhibition of Pig Phosphoenolpyruvate Carboxykinase Isoenzymes by 3-Mercaptopicolinic Acid and Novel Inhibitors” (PLoS ONE, 2016)
